Test results from patent US4395416A, “1-Spiro isobenzofuranic and 1-spiro isobenzothiophenic derivatives the process for preparing the same and their use in therapeutics” (Delalande S.A., priority 1981, dated 1983).

Legend:
[1] = Acute toxicity (mice - LD 50); conditions: mouse, in vivo, ip; for mortality: at 400 mg/kg, read-out: Acute toxicity, % at 400 (mg/kg/i.p.), printed in the LD 50 column
mice [2] = test: Protection against death induced by intravenous bicuculline (anti-convulsion activity); type: in vivo; conditions: Mus musculus, ip, intravenous injection of 0.7 mg/kg of bicuculline, read-out: Efficient doses 50 - ED 50 protecting against death induced by Bicuculline
mice [3] = test: Phenylbenzoquinone test (analgesic activity); type: in vivo; conditions: Mus musculus, ip, read-out: Phenylbenzoquinone test - ED 50
Text: The analgesic activity was shown up on mice by interperitoneal injection of the compounds of formula (I) and their salts using the phenylbenzoquinone test according to the method described by E. SIEGMUND in Proced. Soc. Exp. Biol. and Med. 95, 729 (1957).

SMILES	LD50 [1] [mg/kg]	ED50 (mice [2]) [mg/kg]	ED50 (mice [3]) [mg/kg]	mortality [1] [%]
O=C1SC2(CCCN2c2ccc(Cl)cc2)c2ccc(Cl)cc21 (stereo not shown) [compound 40]	> 400	100	–	–
CCN1CCCC12SC(=O)c1ccccc12 (stereo not shown) [compound 3]	> 400	26	–	–
COc1cc2c(cc1OC)C1(CCCN1C)SC2=O (stereo not shown) [compound 10]	> 400	30	–	–
CN1CCCC12SC(=O)c1ccccc12 (stereo not shown) [Code number 1]	400	7	30	–
CCN1CCCC12SC(=O)c1cc(Cl)ccc12 (stereo not shown) [compound 7]	> 400	10	–	–
CN1CCCC12OCc1ccccc12 (stereo not shown) [compound 21]	275	15	100	–
O=C1SC2(CCCN2c2ccccc2)c2ccccc21 (stereo not shown) [compound 37]	> 400	100	–	–
CN1CCCC12SC(=O)c1cc3ccccc3cc12 (stereo not shown) [compound 42]	> 400	34	–	–
S=C1OC2(CCCC2)c2ccccc21 [compound 24]	> 400	63	46	–
CC(C)CN1CCCC12SC(=O)c1cc(Cl)ccc12 (stereo not shown) [compound 36]	> 400	30	–	–
O=C1OC2(CCCC2)c2ccccc21 [compound 23]	> 400	76	–	–
CN1CCCC12SC(=O)c1ccc(Cl)cc12 (stereo not shown) [compound 5]	> 400	80	–	–
CN1CCCC12SC(=O)c1cc(F)ccc12 (stereo not shown) [compound 16]	> 400	25	–	–
CN1CCCC12SCc1cc(Cl)ccc12 (stereo not shown) [compound 45]	> 400	15	–	–
CN1CCCC12SC(=O)c1cc(Br)ccc12 (stereo not shown) [compound 41]	> 400	29.5	–	–
O=C1SC2(CCCN2c2ccccc2)c2ccc(Cl)cc21 (stereo not shown) [compound 38]	> 400	56	–	–
CN1CCCC12OC(c1ccccc1)c1ccccc12 (stereo not shown) [compound 44]	> 400	45	64	–
COc1ccc2c(c1)C1(CCCN1C)SC2=O (stereo not shown) [compound 8]	> 400	100	–	–
CN1CCCCC12SC(=O)c1ccccc12 (stereo not shown) [compound 2]	> 400	100	50	–
COc1ccc2c(c1)C(=O)SC21CCCN1C (stereo not shown) [compound 9]	> 400	40	–	–
CN1CCCC12OCc1cc(Cl)ccc12 (stereo not shown) [compound 43]	> 400	27.5	30	–
CN1CCCC12SC(=O)c1cc(Cl)ccc12 (stereo not shown) [compound 6]	> 400	8	–	–
O=C1SC2(CCCN2c2ccc(Cl)cc2)c2ccccc21 (stereo not shown) [compound 39]	> 400	62	–	–
CCCN1CCCC12SC(=O)c1ccccc12 (stereo not shown) [Code number 4]	> 400	47	35	–
CN1CCCC12SCc1ccccc12 (stereo not shown) [compound 22]	290	34	–	–
CCCCN1CCCC12SC(=O)c1cc(Cl)ccc12 (stereo not shown) [compound 35]	–	26	–	60
CCCN1CCCC12SC(=O)c1cc(Cl)ccc12 (stereo not shown) [compound 34]	–	11	–	40
